Patent publication US8221738B2, “Method for enhanced uptake of viral vectors in the myocardium” (Celladon Corporation, priority 2008, dated 2012)

Experiments:
[1] = test system: SERCA2a mRNA; assay: SERCA2a mRNA expression via RT-PCR in heart sections, 30 day single dose tissue distribution study; type: in vivo, Göttingen Minipigs; conditions: nitroglycerin given with AAV1/SERCA2a; especially deep myocardial regions (septum, middle layer anterior wall)
Experimental: (§1) Administration on Day 0 was via the direct coronary infusion procedure described below. Animals from Groups 1-3 were dosed with a total volume of 12 mL of AAV1/SERCA2a solution which was infused at a constant rate of 1.2 mL/minute over a 10 minute period. Animals from Groups 3 and 4 received nitroglycerin as a bolus intracoronary injection immediately prior to administration of AAV1/SERCA2a. Animals from Group 3 were dosed with a total volume of 12 mL of AAV1/SERCA2a and nitroglycerin solution, which was infused at a constant rate of 1.2 mL/minute over a 10 minute period. Animals from Group 4 were dosed with a total volume of 12 mL of normal saline, which was infused at a constant rate of 1.2 mL/minute over a 10 minute period. The direct infusion system is composed of standard (commercially available) components including a conventional guide sheath, 0.014″ guide-wire, a 5F infusion (guide) catheter and two programmable syringe pumps. […]
Total mRNA and protein expression in the left ventricle of individual sections was calculated (sum of sections 1-10 in FIG. 1), and the septum (section #5 in FIG. 1), and the middle layer anterior wall (section #6 in FIG. 1) were also analyzed separately, as these regions represent deep myocardium, furthest from the site of infusion. […]

[2] = Hemodynamic monitoring (mean aortic/arterial pressure) during administration of AAV1/SERCA2a; type: in vivo, Göttingen Minipigs; conditions: Groups 3 and 4 (nitroglycerin treated animals); maximum; except one time point in group 4
Experimental: as §1, with “pumps. The direct intracoronary infusion procedure began with introduction of the conventional guide sheath using a common carotid arterial or femoral arterial approach. The Coronary Infusion Catheter (e.g., Cordis Vista Brite Tip Guiding Catheter or similar model appropriate for cannulation of the left main coronary artery) was then placed in the left main coronary artery under fluoroscopic guidance.” for “pumps.”

In the case of `O=[N+]([O-])OCC(CO[N+](=O)[O-])O[N+](=O)[O-]` [nitroglycerin, glyceryl trinitrate], the vector uptake [1] is reported as “enhanced” and the “decrease in Mean arterial pressure (MAP) compared to baseline” value [2] is reported as no more than 6 mm Hg.
